In patent US7947673B2, “Method of scintigraphy” (Novartis AG, priority 2005, dated 2011):

Legend:
[1] = Determination of the affinity constant for gallium by potentiometric measurements; type: physicochemical; conditions: ionic strength 0.1 M KCl, temperature 25° C., in water
From the text: Determination of the affinity constant of 4-[3,5-bis(2-hydroxyphenyl)-[1,2,4]triazol-1-yl]benzoic acid for gallium
(§1) Chem. 2004, pp 4177-4192. Considering the affinity constants of 4-[3,5-bis(2-hydroxyphenyl)-[1,2,4]triazol-1-yl]benzoic acid for other metal ions according to Steinhauser et al., Eur. J. Inorg.

[2] = Ranking of affinity constants for metal ions; type: physicochemical; conditions: other metal ion constants according to Steinhauser et al., Eur. J. Inorg. Chem. 2004
From the text: as §1

affinity constant for Gallium, log β120 [1]: 33.8(1)
Structure (SMILES): O=C(O)c1ccc(-n2nc(-c3ccccc3O)nc2-c2ccccc2O)cc1 [4-[3,5-bis(2-hydroxyphenyl)-[1,2,4]triazol-1-yl]benzoic acid]
ranking according to affinity constants for metal ions [2]: Fe(III) (highest affinity)>Ga(III)>Al(III)>>Cu(II)>>Zn(II)>>Mg(II)>Ca(II)
